Where two headings read alike, the source gives them in different places.

Common to all, as to type: cell-based, HIV-1
One assay relates to HIV-IIIb (wildtype). Put plainly: Antiviral assay in MT4 cells, HIV-IIIb wildtype. The note with it: read-out: WT EC50. In short, it runs like this:
(§1)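 MT4 cells were pre-infected for 3 h at 37 °C with HIV-IIIb (0.004 m.o.i.), then plated at 2000 cells per well with 3-fold serially diluted compound (10 concentrations, quadruplicate). After 5 days at 37 °C, CellTiter-Glo luminescence was read, and EC50 was taken as the concentration giving a 50% decrease in signal.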

The next assay concerns HIV-IIIb IN T174I BT. Description: Antiviral assay in MT4 cells, HIV-IIIb IN T174I BT virus (from viral breakthrough). In short, it runs like this: as §1
The subject of the next assay is HIV-IIIb IN T174I DE. Description: Antiviral assay in MT4 cells, HIV-IIIb IN T174I DE virus (from dose escalation passaging). In short, it runs like this: as §1
The mark [1] stands for this setting: Human immunodeficiency virus 1, IIIB, MT4, 120 h.
The mark [2] stands for this setting: Human immunodeficiency virus 1, IIIB, MT4, 120 h, read-out: T174I BT EC50, MT4 cells, HIV-IIIb IN T174I BT (viral breakthrough), 5 days, CellTiter-Glo.
The mark [3] stands for this setting: Human immunodeficiency virus 1, IIIB, MT4, 120 h, read-out: T174I DE EC50, MT4 cells, HIV-IIIb IN T174I DE (dose escalation), 5 days, CellTiter-Glo.

In the case of `CC(=O)N1CC(N2CCC(c3nn(C4CC4)c4ccc(-c5nc6cc(C)c([C@H](OC(C)(C)C)C(=O)O)c(-c7ccc(Cl)cc7)c6s5)cc34)CC2)C1` [Compound 45, (S)-2-(2-(3-(1-(1-acetylazetidin-3-yl)piperidin-4-yl)-1-cyclopropyl-1H-indazol-5-yl)-7-(4-chlorophenyl)-5-methylbenzo[d]thiazol-6-yl)-2-(tert-butoxy)acetic Acid], the concentration for a half-maximal effect (EC50) turned out to be 17 nM with HIV-IIIb (wildtype) (setting [1]), 174 nM with HIV-IIIb IN T174I BT (setting [2]) and 287 nM with HIV-IIIb IN T174I DE (setting [3]).

For the compound `CC(=O)N1CC(N2CCC(c3nn(C(F)F)c4ccc(-c5nc6cc(C)c([C@H](OC(C)(C)C)C(=O)O)c(-c7ccc(Cl)cc7)c6s5)nc34)CC2)C1` [Compound 183, (S)-2-(2-(3-(1-(1-acetylazetidin-3-yl)piperidin-4-yl)-1-(difluoromethyl)-1H-pyrazolo [4,3-b]pyridin-5-yl)-7-(4-chloro-phenyl)-5-methylbenzo[d]thiazol-6-yl)-2-(tert-butoxy) acetic acid], the results for the EC50 in the assay with HIV-IIIb (wildtype) (setting [1]), with HIV-IIIb IN T174I BT (setting [2]) and with HIV-IIIb IN T174I DE (setting [3]) were 2 nM, 29 nM and 69 nM, respectively.

With `Cc1cc2nc(-c3ccc4c(c3)c(C3CCN(C5COC5)CC3)nn4CC(F)F)sc2c(-c2ccc(Cl)cc2)c1[C@H](OC(C)(C)C)C(=O)O` [Compound 42, (S)-2-(tert-butoxy)-2-(7-(4-chlorophenyl)-2-(1-(2,2-difluoroethyl)-3-(1-(oxetan-3-yl)piperidin-4-yl)-1H-indazol-5-yl)-5-methylbenzo[d]thiazol-6-yl)acetic acid], the EC50 came to 5040 nM in the assay on HIV-IIIb (wildtype) (setting [1]), 5710 nM in the assay on HIV-IIIb IN T174I BT (setting [2]) and 5710 nM with HIV-IIIb IN T174I DE (setting [3]).

Regarding `Cc1cc2nc(-c3cnc4c(c3)c(C3=CCN(C)CC3)cn4C)sc2c(-c2ccc(Cl)cc2)c1[C@H](OC(C)(C)C)C(=O)O` [Compound 105, (S)-2-(tert-butoxy)-2-(7-(4-chlorophenyl)-5-methyl-2-(1-methyl-3-(1-methyl-1,2,3,6-tetrahydropyridin-4-yl)-1H-pyrrolo[2,3-b]pyridin-5-yl)benzo[d]thiazol-6-yl)acetic acid], the figures for the EC50 in the assay on HIV-IIIb (wildtype) (setting [1]), in the assay on HIV-IIIb IN T174I BT (setting [2]) and in the assay on HIV-IIIb IN T174I DE (setting [3]) were 35 nM, 1460 nM and 2290 nM, respectively.

With `CC(=O)N1CC(N2CCC(c3nn(C4CC4)c4ccc(-c5nc6cc(C)c([C@H](OC(C)(C)C)C(=O)O)c(-c7ccc(Cl)cc7)c6s5)nc34)CC2)C1` [Compound 182, (S)-2-(2-(3-(1-(1-acetylazetidin-3-yl)piperidin-4-yl)-1-cyclopropyl-1H-pyrazolo[4,3-b]pyridin-5-yl)-7-(4-chlorophenyl)-5-methylbenzo [d]thiazol-6-yl)-2-(tert-butoxy) acetic acid], the EC50 in the assay with HIV-IIIb (wildtype) (setting [1]) came to 2 nM; in the assay on HIV-IIIb IN T174I BT (setting [2]) it was 27 nM; in the assay with HIV-IIIb IN T174I DE (setting [3]), 59 nM.

Regarding `Cc1cc2nc(-c3ccc4c(c3)c(C3CCN(C(=O)C5CCO5)CC3)nn4C)sc2c(-c2ccc(Cl)cc2)c1[C@H](OC(C)(C)C)C(=O)O` (stereo partly drawn) [Compound 159, (2S)-2-(tert-butoxy)-2-(7-(4-chloro-phenyl)-5-methyl-2-(1-methyl-3-(1-(oxetane-2-carbonyl)piperidin-4-yl)-1H-indazol-5-yl)benzo[d]thiazol-6-yl) acetic acid], the EC50 in the assay with HIV-IIIb (wildtype) (setting [1]) worked out at 11 nM; in the assay on HIV-IIIb IN T174I BT (setting [2]), 430 nM; in the assay with HIV-IIIb IN T174I DE (setting [3]), 583 nM.

Consider `COCCN1CC(c2nn(C)c3ccc(-c4nc5cc(C)c([C@H](OC(C)(C)C)C(=O)O)c(-c6ccc(Cl)cc6)c5s4)cc23)C1` [Compound 56, (S)-2-(tert-butoxy)-2-(7-(4-chlorophenyl)-2-(3-(1-(2-methoxyethyl)azetidin-3-yl)-1-methyl-1H-indazol-5-yl)-5-methylbenzo[d]thiazol-6-yl)acetic acid], for which the EC50 is 4 nM in the assay on HIV-IIIb (wildtype) (setting [1]), 1390 nM in the assay on HIV-IIIb IN T174I BT (setting [2]) and 2070 nM with HIV-IIIb IN T174I DE (setting [3]).

On to `Cc1cc2nc(-c3ccc4c(c3)c(C3CCN(C5CN(C(C)C(F)(F)F)C5)CC3)nn4C)sc2c(-c2ccc(Cl)cc2)c1[C@H](OC(C)(C)C)C(=O)O` (stereo partly drawn) [Compound 8, (2S)-2-(tert-butoxy)-2-(7-(4-chlorophenyl)-5-methyl-2-(1-methyl-3-(1-(1-(1,1,1-trifluoropropan-2-yl)azetidin-3-yl)piperidin-4-yl)-1H-indazol-5-yl)benzo[d]thiazol-6-yl)acetic Acid], for which the figures for the EC50 in the assay on HIV-IIIb (wildtype) (setting [1]), in the assay with HIV-IIIb IN T174I BT (setting [2]) and in the assay on HIV-IIIb IN T174I DE (setting [3]) were 13 nM, 1090 nM and 1330 nM, respectively.

As for `Cc1cc2nc(-c3ccc4c(n3)c(C3CCN(C5COC5)CC3)nn4C(F)F)sc2c(-c2ccc(Cl)cc2)c1[C@H](OC(C)(C)C)C(=O)O` [Compound 194, (S)-2-(tert-butoxy)-2-(7-(4-chloro-phenyl)-2-(1-(difluoromethyl)-3-(1-(oxetan-3-yl)piperidin-4-yl)-1H-pyrazolo [4,3-b]pyridin-5-yl)-5-methylbenzo [d]thiazol-6-yl) acetic acid], the figures for the EC50 with HIV-IIIb (wildtype) (setting [1]), in the assay on HIV-IIIb IN T174I BT (setting [2]) and with HIV-IIIb IN T174I DE (setting [3]) were 4 nM, 126 nM and 300 nM, respectively.

Regarding `Cc1cc2nc(-c3ccc4c(c3)c(C3CN(C(C)(C)C)C3)nn4C)sc2c(-c2ccc(Cl)cc2)c1[C@H](OC1CC1)C(=O)O` [Compound 60, (S)-2-(2-(3-(1-(tert-butyl)azetidin-3-yl)-1-methyl-1H-indazol-5-yl)-7-(4-chlorophenyl)-5-methylbenzo[d]thiazol-6-yl)-2-cyclopropoxyacetic acid], the EC50 in the assay with HIV-IIIb (wildtype) (setting [1]) is 31 nM; in the assay on HIV-IIIb IN T174I BT (setting [2]), 477 nM; in the assay with HIV-IIIb IN T174I DE (setting [3]), 692 nM.

As to `COC(=O)N1CC[C@H]1CN1CCC(c2nn(C)c3ccc(-c4nc5cc(C)c([C@H](OC(C)(C)C)C(=O)O)c(-c6ccc(Cl)cc6)c5s4)cc23)CC1` [Compound 150, (S)-2-(tert-butoxy)-2-(7-(4-chloro-phenyl)-2-(3-(1-(((S)-1-(methoxy-carbonyl)azetidin-2-yl)methyl)piperidin-4-yl)-1-methyl-1H-indazol-5-yl)-5-methyl-benzo[d]thiazol-6-yl)acetic acid], the EC50 with HIV-IIIb (wildtype) (setting [1]) stood at 4 nM; in the assay with HIV-IIIb IN T174I BT (setting [2]), 214 nM; in the assay on HIV-IIIb IN T174I DE (setting [3]), 182 nM.

As to “(S)-2-(tert-butoxy)- 2-(7-(4-chloro- phenyl)-2-(3-(1- ((S)-1-(methoxy- carbonyl) pyrrolidin- 3-yl)piperidin-4- yl)-1-methyl-1H- pyrrolo[2,3-b] pyridin-5-yl)-5- methylbenzo[d] thiazol-6-yl) acetic acid [Compound 202]”, the EC50 with HIV-IIIb (wildtype) (MT4 cells, HIV-IIIb wildtype, 5 days, CellTiter-Glo) turned out to be 7 nM; in the assay with HIV-IIIb IN T174I BT (MT4 cells, HIV-IIIb IN T174I BT (viral breakthrough), 5 days, CellTiter-Glo, read-out: T174I BT EC50) it was 157 nM; in the assay on HIV-IIIb IN T174I DE (MT4 cells, HIV-IIIb IN T174I DE (dose escalation), 5 days, CellTiter-Glo, read-out: T174I DE EC50), 680 nM.

`CC(=O)N1CC(N2CCC(c3nn(C)c4ncc(-c5nc6cc(C)c([C@H](OC(C)(C)C)C(=O)O)c(-c7ccc(Cl)cc7)c6s5)cc34)CC2)C1` [Compound 117, (S)-2-(2-(3-(1-(1-acetylazetidin-3-yl)piperidin-4-yl)-1-methyl-1H-pyrazolo[3,4-b]pyridin-5-yl)-7-(4-chlorophenyl)-5-methylbenzo[d]thiazol-6-yl)-2-(tert-butoxy)acetic acid]: the EC50 in the assay on HIV-IIIb (wildtype) (setting [1]) stood at 27 nM; with HIV-IIIb IN T174I BT (setting [2]), 1180 nM; in the assay with HIV-IIIb IN T174I DE (setting [3]), 1690 nM.

Take `Cc1cc2nc(-c3cnc4c(n3)c(C3CCN(C5COC5)CC3)nn4C)sc2c(-c2ccc(Cl)cc2)c1[C@H](OC(C)(C)C)C(=O)O` [Compound 118, (S)-2-(tert-butoxy)-2-(7-(4-chlorophenyl)-5-methyl-2-(1-methyl-3-(1-(oxetan-3-yl)piperidin-4-yl)-1H-pyrazolo[3,4-b]pyrazin-5-yl)benzo[d]thiazol-6-yl)acetic acid]: the EC50 with HIV-IIIb (wildtype) (setting [1]) worked out at 4 nM; in the assay with HIV-IIIb IN T174I BT (setting [2]) it was 298 nM; in the assay with HIV-IIIb IN T174I DE (setting [3]), 737 nM.

(Values after US10800772B2 (Gilead Sciences, Inc., priority 2016, dated 2020).)
